Assay results taken from patent US4118561A, “7-(Substituted)-7H-pyrrolo[3,2-f]quinazoline-1,3-diamines” (priority 1977, dated 1978).
≈ marks a conversion by molar mass, not a printed value. Where two headings read alike, the source gives them in different places.

Legend:
S. paratyphi 11737 = assay: In vitro antibacterial activity (MIC), S. paratyphi 11737; assay type: cell-based; details: Salmonella enterica, 18 h
[1] = Antimalarial blood schizonticidal test in mice; assay type: in vivo, Plasmodium berghei (infected ICR/HA Swiss mice); set-up: ΔMST (increase in mean survival time): unit: days; details: mouse, in vivo, sc, single dose, read-out: Highest Non-Lethal Dose
In short: (§1)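 Single s.c. doses (peanut oil vehicle, graded levels) given 72 h after i.p. inoculation of young Swiss mice with P. berghei KBG 173 blood (4 × 10^7 parasitized cells). Activity judged by cures (alive at 60 days) or significant mean survival gain over untreated controls, without drug-related deaths.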

[2] = tested on: Plasmodium berghei KBG 173; assay: Antimalarial blood schizonticidal test in mice; assay type: in vivo, Plasmodium berghei (infected ICR/HA Swiss mice); set-up: ΔMST (increase in mean survival time): unit: days; details: for ED100 / minimal effective dose: Plasmodium berghei, sc, single dose; for ED100: read-out: Lowest Dose Curing All Mice; for minimal effective dose: read-out: Min. Curing Dose; for Cure/Treat at Min. Curing Dose: at the Min. Curing Dose
In short: as §1

E. coli 9637 = assay: In vitro antibacterial activity (MIC), E. coli 9637; details: Escherichia coli, 9637, 18 h
S. aureus Smith = assay: In vitro antibacterial activity (MIC), S. aureus Smith; details: Staphylococcus aureus, 18 h
S. aureus 53-180 = assay: In vitro antibacterial activity (MIC), S. aureus 53-180; details: Staphylococcus aureus, 53180, 18 h
P. vulgaris 6896 = assay: In vitro antibacterial activity (MIC), P. vulgaris 6896; details: Proteus vulgaris, 6896, 18 h
N. catarrhalis 8193 = assay: In vitro antibacterial activity (MIC), N. catarrhalis 8193; details: 18 h
K. pneumoniae 10031 = assay: In vitro antibacterial activity (MIC), K. pneumoniae 10031; details: Klebsiella pneumoniae, 10031, 18 h
[3] = infected mice, highest dose with no deaths for any reason
[4] = alive on day 14 considered cured, no 60-day data
[5] = 336 h, s.c., alive on day 14 considered cured, no 60-day data
[6] = s.c., alive on day 14 considered cured

| SMILES | MIC (S. paratyphi 11737) [µg/mL] | MTD [1, 3] [mg/kg] | ED100 ([2]; 1440 h, s.c., 60-day survivors) [mg/kg] | minimal effective dose ([2]; 1440 h, s.c., 60-day survivors) [mg/kg] | Cure/Treat at Min. Curing Dose ([2]; s.c., 60-day survivors) | MIC (E. coli 9637) [µg/mL] | MIC (S. aureus Smith) [µg/mL] | MIC (S. aureus 53-180) [µg/mL] | MIC (P. vulgaris 6896) [µg/mL] | MIC (N. catarrhalis 8193) [µg/mL] | MIC (K. pneumoniae 10031) [µg/mL] | ΔMST (increase in mean survival time) ([2]; s.c., dose 5 mg. per kg.) | further results |
| --- | --- | --- | --- | --- | --- | --- | --- | --- | --- | --- | --- | --- | --- |
| Nc1nc(N)c2c(ccc3c2ccn3Cc2cccnc2)n1 [Example 44] | 0.488 (≈ 1.68 µM) | 160 | 160 | 80 | 3/5 | 0.488 (≈ 1.68 µM) | 7.81 (≈ 26.9 µM) | 0.976 (≈ 3.36 µM) | 7.81 (≈ 26.9 µM) | < 0.0009 | 0.122 (≈ 0.42 µM) | – | ΔMST (increase in mean survival time) ([2]; s.c., dose 40 mg. per kg.): 8.3 |
| Nc1nc(N)c2c(ccc3c2ccn3Cc2ccc(OC(F)(F)F)cc2)n1 [Example 64, 7-[(4-Trifluoromethoxyphenyl)methyl]-7H-pyrrolo[3,2-f]quinazoline-1,3-diamine] | 62.5 (≈ 167 µM) | 10 | 10 | 2.5 | 2/5 | 3.9 (≈ 10.4 µM) | 0.976 (≈ 2.61 µM) | 0.244 (≈ 0.654 µM) | 62.5 (≈ 167 µM) | 0.031 (≈ 0.083 µM) | 0.122 (≈ 0.327 µM) | – | ΔMST (increase in mean survival time) ([2]; s.c., dose 1.25 mg. per kg.): 9.6 |
| Cc1ccc2ccccc2c1Cn1ccc2c3c(N)nc(N)nc3ccc21 [Example 49] | > 250 | 80 | 20 | – | 5/5 | > 250 | 125 (≈ 354 µM) | 125 (≈ 354 µM) | > 250 | 0.122 (≈ 0.345 µM) | 15.6 (≈ 44.1 µM) | – | minimal effective dose ([2]; this is the lowest dose tested): 20 mg/kg |
| Cc1cc(C)c(Cn2ccc3c4c(N)nc(N)nc4ccc32)c(C)c1 [Example 27] | > 250 | 80 | 40 | 5 | 3/5 | > 250 | 250 (≈ 754 µM) | 250 (≈ 754 µM) | > 250 | 0.244 (≈ 0.736 µM) | 31.3 (≈ 94.4 µM) | – | ΔMST (increase in mean survival time) ([2]; s.c., dose 2.5 mg. per kg.): 7.3 |
| Nc1nc(N)c2c(ccc3c2ccn3Cc2cccc(F)c2)n1 [Example 4] | 0.488 (≈ 1.59 µM) | 40 | 40 | 10 | 1/5 | 0.244 (≈ 0.794 µM) | 0.244 (≈ 0.794 µM) | 0.031 (≈ 0.101 µM) | 0.488 (≈ 1.59 µM) | < 0.0009 | 0.061 (≈ 0.198 µM) | – | ΔMST (increase in mean survival time) ([2]; s.c., dose 10 mg. per kg.): 8.3 |
| Nc1nc(N)c2c(ccc3c2ccn3-c2ccc([N+](=O)[O-])cc2)n1 [Example 77] | 62.5 (≈ 195 µM) | 640 | 640 | 160 | 5/5 | 7.81 (≈ 24.4 µM) | 3.9 (≈ 12.2 µM) | 3.9 (≈ 12.2 µM) | 250 (≈ 780 µM) | 0.031 (≈ 0.0968 µM) | 0.976 (≈ 3.05 µM) | – | ΔMST (increase in mean survival time) ([2]; s.c., dose 40 mg. per kg.): 28.3 |
| Nc1nc(N)c2c(ccc3c2ccn3Cc2cccc3ccccc23)n1 [Example 47] | 62.5 (≈ 184 µM) | 80 | 20 | 5 | 2/5 | 15.6 (≈ 46 µM) | 3.9 (≈ 11.5 µM) | 0.976 (≈ 2.88 µM) | 31.3 (≈ 92.2 µM) | 0.0019 (≈ 0.0056 µM) | 0.976 (≈ 2.88 µM) | 9.2 | – |
| Nc1nc(N)c2c(ccc3c2ccn3Cc2cccc(Cl)c2)n1 [Example 7] | 31.3 (≈ 96.7 µM) | 160 | 10 | 2.5 | 2/5 | 7.81 (≈ 24.1 µM) | 1.95 (≈ 6.02 µM) | 0.976 (≈ 3.01 µM) | 31.3 (≈ 96.7 µM) | 0.244 (≈ 0.754 µM) | 0.976 (≈ 3.01 µM) | – | ΔMST (increase in mean survival time) ([2]; s.c., dose 1.25 mg. per kg.): 7.7 |
| Nc1nc(N)c2c(ccc3c2ccn3Cc2c(Cl)cccc2Cl)n1 [Example 9] | > 250 | – | – | – | – | > 250 | 250 (≈ 698 µM) | 250 (≈ 698 µM) | > 250 | 0.488 (≈ 1.36 µM) | 15.6 (≈ 43.5 µM) | – | MTD [1, 4]: 160 mg/kg; ED100 [2, 5]: 40 mg/kg; minimal effective dose [2, 5]: 5 mg/kg; Cure/Treat at Min. Curing Dose [2, 6]: 1/5 |
| COc1cccc(Cn2ccc3c4c(N)nc(N)nc4ccc32)c1 [Example 33] | 7.81 (≈ 24.5 µM) | 40 | 40 | 10 | 1/5 | 0.488 (≈ 1.53 µM) | 3.9 (≈ 12.2 µM) | 0.976 (≈ 3.06 µM) | 7.81 (≈ 24.5 µM) | 0.976 (≈ 3.06 µM) | 0.488 (≈ 1.53 µM) | 7.6 | – |
| Nc1nc(N)c2c(ccc3c2ccn3Cc2cccc3cccnc23)n1 [Example 51] | 1.95 (≈ 5.73 µM) | 40 | 20 | 5 | 1/5 | 0.244 (≈ 0.717 µM) | 0.244 (≈ 0.717 µM) | 0.122 (≈ 0.358 µM) | 7.81 (≈ 22.9 µM) | 0.0152 (≈ 0.0447 µM) | 0.122 (≈ 0.358 µM) | 6.4 | – |
| Cc1ccc(C)c(Cn2c(C)cc3c4c(N)nc(N)nc4ccc32)c1 [Example 103] | > 250 | – | – | – | – | 250 (≈ 754 µM) | 31.3 (≈ 94.4 µM) | 7.81 (≈ 23.6 µM) | > 250 | 1.95 (≈ 5.88 µM) | 15.6 (≈ 47.1 µM) | – | MTD [1, 4]: 80 mg/kg; ED100 [2, 5]: 5 mg/kg; minimal effective dose [2, 5]: 1.25 mg/kg; Cure/Treat at Min. Curing Dose [2, 6]: 1/5; ΔMST (increase in mean survival time) ([2]; s.c., dose 1.25 mg. per kg., alive on day 14 considered cured, no 60-day data): 6.8 |
| Nc1nc(N)c2c(ccc3c2ccn3Cc2ccc(Cl)cc2)n1 [Example 8] | 0.976 (≈ 3.01 µM) | 40 | 20 | 10 | 2/5 | 0.976 (≈ 3.01 µM) | 0.976 (≈ 3.01 µM) | 0.244 (≈ 0.754 µM) | 0.976 (≈ 3.01 µM) | 0.0038 (≈ 0.0117 µM) | 0.122 (≈ 0.377 µM) | 8.1 | – |
